Test results taken from US7868047B2, “Anti-inflammatory and psoriasis treatment and protein kinase inhibition by hydroxy stilbenes and novel stilbene derivatives and analogues” (Welichem Biotech Inc., priority 1999, dated 2011).

Tests used:
[1] = system: acute colon inflammation induced by 5% DSS; test: DSS (5%) acute colon inflammation mouse model, therapeutic experiment; assay type: in vivo; settings: for Bleeding score / Diarrheal score: day seven, mean ± SEM, n = 9, 1 = normal; for Bleeding score: 2 = bloody stool, 4 = gross bleeding; for Diarrheal score: 2 = loose stools, 4 = diarrhea
Description: To assess the in vivo efficacy for preventive and therapeutic activities of these compounds on IBD, two experiments were designed and tested using the dextran sulfate sodium (DSS) experimental mouse model for human IBD.
For the therapeutic experiment a further experiment was done to test different doses of 9A on severe, acute intestinal inflammation in mice induced by a high dose of DSS (5%). In this experiment, drug treatment started from day 3 post DSS induction when disease symptom was established. 9A (200 mg/kg or 100 mg/kg) was administered through oral […] once daily and a commercial drug, sulfasalazine (SASP, 100 mg/kg/day) was used as positive control. Experiment was terminated at day 7 and the efficacy was assessed.

[2] = system: TPA-induced ear edema; test: TPA-induced ear edema model; assay type: in vivo, mouse; settings: 0.3% single topical, TPA 0.01%, ear thickness 6 hours after TPA
Experimental: Experiment: Three representative compounds, 5-(2-phenylethenyl)-2-1-propyl-1,3-benzenediol, as previously reported, a closely related stilbene derivative (WO 0142231) and compound 39B, a novel compound of the current invention, were assayed against the edema on female mice (Balb/c) aged 10-12 weeks, using 0.01% Calcitriol (a commercial standard) as a positive control. Phorbol-12-myristate-13-acetate (TPA) was used as the edema inducer. TPA and the test compounds were all dissolved in 100% ethanol and 20 μl applied on the right ear of the mouse with six mice per group. The TPA concentration used was 0.01% (w/v). Ear thickness was measured 6 hours after TPA treatment to determine if edema was decreased. In each experiment replicated groups of TPA treated mice were treated with either 5-(2-phenylethenyl)-2-1-propyl-1,3-benzenediol, Calcitriol, compound 39B or only ethanol, and the level of inhibition was obtained by measuring the thickness of the ear and expressing the difference in thickness of the treated ear from that of the ethanol treated ear, as a percentage.

[3] = system: psoriasis; test: 1% cream on volunteers with psoriasis; assay type: in vivo, human; settings: topical, once per day, vs control cream
Experimental: The biological activity of the compounds of this invention can be determined by measurement of the effect of the test compound in vivo because there is no animal model suitable for the diseases. The compounds were tested on volunteers. In these tests, representative compound of this invention, i.e., 3,5-dihydroxy-4-isopropylstilbene is active in reducing or eliminating symptoms of psoriasis and eczema.
A 1% cream of 3,5-dihydroxy-4-isopropylstilbene was prepared for tests on volunteers. Three volunteers, each with a long psoriasis history, were recruited for the tests. Neither of them was on any medication a month before the initiation of the test.
Volunteer 1, person, with scalp psoriasis for more than 15 years. They had used various conventional drugs and treatments, include, steroids, phototherapy and other medicine during the course of their illness. All of these treatments had no or very limited effect on this psoriasis.
Volunteer 2, person, with plaques on their back. They had used hydrocortisone before and stopped using it because of side effects.
The volunteers were treated once per day by applying the creams once per day on top of the affected area with the basic cream as the control (except for volunteer 3). […] The cream of the invention contained 1% 3,5-dihydroxy-4-isopropylstilbene. The control cream was identical except that it contained no 3,5-dihydroxy-4-isopropylstilbene. […]

[4] = system: eczema; test: 1% cream on volunteer with eczema; assay type: in vivo, human; settings: topical, right side, control triamcinolone acetonide 0.5% left side
[5] = system: DSS-induced IBD; test: DSS (2%) IBD mouse model, preventive experiment; assay type: in vivo; settings: 500 mg/kg/day oral with 2% DSS, day 7
Experimental: To assess the in vivo efficacy for preventive and therapeutic activities of these compounds on IBD, two experiments were designed and tested using the dextran sulfate sodium (DSS) experimental mouse model for human IBD. For the preventive experiment, compounds 9A and 39B were simultaneously administrated orally with 2% DSS at the dose of 500 mg/kg/day. Vehicle alone and glucocorticoid (dexamethasone 20 mg/kg/day) were used as controls. At day 7, mice were sacrificed, examined for stool appearance, diarrhea and colon macroscopic damage including ulceration, inflammation and adhesion. Colon samples were also taken and fixed in 10% formalin for histological assessment of architecture, ulceration, inflammation and serosal damage.

## CC(C)c1c(O)cc(/C=C/c2ccccc2)cc1O [Compound 9A, 3,5-Dihydroxy-4-isopropyl-trans-stilbene]
[1]; 100 mg/kg oral daily
  Bleeding score: 3.3 ± 0.37
  Diarrheal score: 2.0 ± 0.73
[1]; 200 mg/kg oral daily
  Bleeding score: 3.2 ± 0.49
  Diarrheal score: 2.4 ± 0.45
[1]; 5% DSS, treatment from day 3
  survival rate vs control treatment: significantly higher survival rate
[1]; daily oral treatment from day 3 post 5% DSS, vehicle control 33%
  survival rate: 67%
[2]
  % edema inhibition: 8%
[3]
  effect on psoriasis, volunteer 1 (scalp psoriasis): completely clearance in 7 days
  effect on psoriasis, volunteer 2 (plaques on back): significant improvement of the psoriasis
[4]
  effect on eczema, volunteer 3: disease symptoms completely disappeared by week 2
[5]
  macroscopic and microscopic diseases scores: significantly decreased
